{
  "source": "patent US20100092574A1",
  "about": "“SYNERGISTIC PEROXIDE BASED BIOCIDAL COMPOSITIONS” (priority 2008, published 2010)",
  "key": {"[1]": {"test_system": "microbial population of sulfite bleached pulp slurry (total aerobic counts)", "assay": "Biocidal performance in sulfite bleached pulp slurry, total aerobic counts (tryptone soy agar plating)", "type": "cell-based", "settings": "for 3 h Reduction: 3 h contact; for 24 h Reduction: 24 h contact", "excerpt": "(§1) The expression “1 g cfu/mL” denotes the common (decadic) logarithm of the number of colony-forming units per milliliter or, in connection with the term “reduction”, the common logarithm of the quotient of the number of colony-forming units per milliliter before treatment and the number of colony-forming units after treatment. Unless otherwise indicated all concentrations in percent or ppm are expressed on a weight basis.\nSynergistic biocidal performance upon co-application of sulfite with hydrogen peroxide at elevated pH was investigated. The sulfite and peroxide concentrations indicated in Table 3 below were added to an aqueous solution made from: (a) deionized water, (b) NaHCO3 to achieve a carbonate buffer concentration of 200 ppm (as CaCO3 total alkalinity), (c) sulfite bleached pulp slurry to achieve a final consistency of 0.05%, carrying an associated minimal concentration of residual sulfite of 6 ppm, and (d) NaOH to achieve a pH of 9.0.\nThe microbial population was that provided by preparing the pulp slurry 24-48 h prior to testing and storing at room temperature, thus allowing microbial growth to a high test level. […] Populations reported are total aerobic counts using tryptone soy agar plating.\nSI=(level of A)/(efficacious level of A)+(level of B)/(efficacious level of B) (3)\nSynergy upon co-application of sulfite with hydrogen peroxide at higher concentrations of sulfite and hydrogen peroxide was investigated. The conditions were the same as in Example 3."}, "[2]": {"assay": "Stability of active halogen species in the presence of residual H2O2", "type": "physicochemical", "method": "The stability of nitrogen-bound active halogen species in the presence of residual H2O2 was investigated. Free and total chlorine concentrations were measured by standard DPD methodology and the total H2O2 concentration by acidic […] titration. The concentration of MCDMH is the concentration of the total active halogen less the concentration of free active halogen. The concentration of H2O2 is the total oxidant concentration less the MCDMH concentration. […] The indicated reaction is shown in Equation 6.\nThe effect of the addition of a molar equivalent of 5,5-dimethylhydantoin (DMH) to NaOCl solutions prior to combination with hydrogen peroxide was investigated. The concentration of MCDMH is the concentration of the total active halogen less the concentration of free active halogen. The concentration of H2O2 is the total oxidant concentration less the MCDMH concentration."}, "[3]": {"assay": "Residual sulfite and hydrogen peroxide content after mixing (co-stability)", "type": "physicochemical", "method": "Aqueous solutions containing sodium sulfite and hydrogen peroxide were mixed at 21° C. to obtain a solution having a sulfite content (as SO3^2−) of 40 ppm, a hydrogen peroxide content of 20.0 ppm and a pH of 6.7. The temperature of the solution was maintained at 21° C. and the residual sulfite and peroxide content was determined at 15, 30 and 60 minutes after mixing. The procedure consisted of adding a known amount of 1-chloro-5,5-dimethylhydantoin (MCDMH) to the samples in excess of the estimated residual sulfite content. The remaining MCDMH concentration was then measured by standard DPD total halogen methodologies. As sulfite rapidly neutralizes MCDMH at all pHs the sulfite concentration is the concentration of MCDMH added less the concentration of MCDMH measured, see Equation 1 below.\n[Sulfite]=[MCDMHadded]−[MCDMHmeasured] (1)\nThe H2O2 concentration was determined by recording the concentration of H2O2 measured using acidic thiosulfate titration with KI indicator (HACH HYP-1 hydrogen peroxide test kit—Hach Co., Loveland, Colo.). Since this titration is run at acidic pH, this method yields the concentration of H2O2 in excess of the sulfite concentration contained in the sample. As the sulfite concentration is known from the MCMDH analysis and Equation 1, the H2O2 concentration can be calculated using the following Equation 2:\n[H2O2]=[H2O2 measured]+[Sulfitecalculated] (2)\nThe estimated error in the methodology is ±1 ppm\nThe procedure of Example 1 was repeated with the difference that the pH of the mixed solution was 9.0 and the residual concentrations were determined 5, 15, 30, 60, 120 and 1080 minutes after mixing."}, "Pseudomonas aeruginosa": {"test_system": "Pseudomonas aeruginosa", "assay": "Bactericidal efficacy of sulfite and hydrogen peroxide solutions in the absence of pulp", "type": "cell-based", "settings": "for reduction: 50 ppm hydrogen peroxide, 3 h", "excerpt": "as §1\nThe bactericidal efficacy of solutions containing sulfite and hydrogen peroxide was further investigated in the absence of pulp. Efficacy was measured against Pseudomonas aeruginosa grown in nutrient in the presence of 83 and 830 ppm sulfite. The sulfite-containing P. aeruginosa inoculum was then diluted 1:99 with Butterfield's buffer at pH 7.0. The sulfite concentrations in Table 5 below are the those in the final dilution. The dilutions were then contacted with 50 ppm hydrogen peroxide for 3 h at 37° C."}, "[4]": {"settings": "Example 3, hydrogen peroxide alone (40-160 ppm per Table 3)"}, "[5]": {"settings": "Example 4, hydrogen peroxide alone at 120-160 ppm"}, "[6]": {"settings": "Table 3 Test No. 4: sulfite 0 ppm, peroxide 40 ppm, pH 9.0"}, "[7]": {"settings": "Table 3 Test No. 5: sulfite 0 ppm, peroxide 160 ppm, pH 9.0"}, "[8]": {"settings": "Table 4 Test No. 4: sulfite 0 ppm, peroxide 120 ppm"}, "[9]": {"settings": "Table 4 Test No. 5: sulfite 0 ppm, peroxide 150 ppm"}, "[10]": {"settings": "Table 4 Test No. 6: sulfite 0 ppm, peroxide 160 ppm"}},
  "data": [
    {"compound": "OO", "note": "[hydrogen peroxide]", "values": [
      {"measurement": "reduction in 3 h", "setting": "[1]; [4]", "result": "1.2-3.5 1 g cfu/mL"},
      {"measurement": "reduction in 24 h", "setting": "[1]; [4]", "result": "5.5 1 g cfu/mL"},
      {"measurement": "reduction in 3 h", "setting": "[1]; [5]", "result": "3.3-4.0 1 g cfu/mL"},
      {"measurement": "reduction in 24 h", "setting": "[1]; [5]", "result": "3.7-5.5 1 g cfu/mL"},
      {"measurement": "amount alone required to achieve 1 g cfu/mL reduction of 4.2", "setting": "[1]; Example 4, single agent", "result": "≥ 150", "unit": "ppm"},
      {"measurement": "3 h Reduction", "setting": "[1]; [6]", "result": 1.2, "unit": "lg cfu/mL"},
      {"measurement": "24 h Reduction", "setting": "[1]; [6]", "result": 5.5, "unit": "lg cfu/mL"},
      {"measurement": "3 h Reduction", "setting": "[1]; [7]", "result": 3.5, "unit": "lg cfu/mL"},
      {"measurement": "24 h Reduction", "setting": "[1]; [7]", "result": 5.5, "unit": "lg cfu/mL"},
      {"measurement": "3 h Reduction", "setting": "[1]; [8]", "result": 4.0, "unit": "lg cfu/mL"},
      {"measurement": "24 h Reduction", "setting": "[1]; [8]", "result": 4.5, "unit": "lg cfu/mL"},
      {"measurement": "3 h Reduction", "setting": "[1]; [9]", "result": 4.2, "unit": "lg cfu/mL"},
      {"measurement": "24 h Reduction", "setting": "[1]; [9]", "result": 3.7, "unit": "lg cfu/mL"},
      {"measurement": "3 h Reduction", "setting": "[1]; [10]", "result": 3.3, "unit": "lg cfu/mL"},
      {"measurement": "24 h Reduction", "setting": "[1]; [10]", "result": 5.0, "unit": "lg cfu/mL"},
      {"measurement": "Indicated Species H2O2", "setting": "[2]; 2.1 ppm H2O2 + 1.0 ppm DMH stabilized NaOCl, 1 min", "result": 2.1, "unit": "ppm"},
      {"measurement": "Indicated Species H2O2", "setting": "[2]; 2.1 ppm H2O2 + 1.0 ppm DMH stabilized NaOCl, 5 min", "result": 1.9, "unit": "ppm"},
      {"measurement": "Indicated Species H2O2", "setting": "[2]; 2.1 ppm H2O2 + 1.0 ppm DMH stabilized NaOCl, 60 min", "result": 2.3, "unit": "ppm"},
      {"measurement": "Indicated Species H2O2", "setting": "[2]; 2.1 ppm H2O2 + 1.0 ppm NaOCl (as Cl2), 1 min", "result": 1.8, "unit": "ppm"},
      {"measurement": "Indicated Species H2O2", "setting": "[2]; 2.1 ppm H2O2 + 1.0 ppm NaOCl (as Cl2), 5 min", "result": 1.8, "unit": "ppm"},
      {"measurement": "Indicated Species H2O2", "setting": "[2]; 2.1 ppm H2O2 + 1.0 ppm NaOCl (as Cl2), 15 min", "result": 1.4, "unit": "ppm"},
      {"measurement": "H2O2 residue", "setting": "[2]; combination of 2.1 ppm H2O2 with 1 ppm NaOCl (as Cl2), immediate", "result": "~1.6", "unit": "ppm"},
      {"measurement": "H2O2", "setting": "[3]; pH 6.7, 21° C., start 40 ppm sulfite + 20.0 ppm H2O2, 15 min", "result": 6.1, "unit": "ppm"},
      {"measurement": "H2O2", "setting": "[3]; pH 6.7, 21° C., start 40 ppm sulfite + 20.0 ppm H2O2, 30 min", "result": 5.1, "unit": "ppm"},
      {"measurement": "H2O2", "setting": "[3]; pH 6.7, 21° C., start 40 ppm sulfite + 20.0 ppm H2O2, 60 min", "result": 2.4, "unit": "ppm"},
      {"measurement": "H2O2", "setting": "[3]; pH 9.0, start 40 ppm sulfite + 20.0 ppm H2O2, 5 min", "result": 16.9, "unit": "ppm"},
      {"measurement": "H2O2", "setting": "[3]; pH 9.0, start 40 ppm sulfite + 20.0 ppm H2O2, 15 min", "result": 14.8, "unit": "ppm"},
      {"measurement": "H2O2", "setting": "[3]; pH 9.0, start 40 ppm sulfite + 20.0 ppm H2O2, 30 min", "result": 14.7, "unit": "ppm"},
      {"measurement": "H2O2", "setting": "[3]; pH 9.0, start 40 ppm sulfite + 20.0 ppm H2O2, 60 min", "result": 15.2, "unit": "ppm"},
      {"measurement": "H2O2", "setting": "[3]; pH 9.0, start 40 ppm sulfite + 20.0 ppm H2O2, 120 min", "result": 13.2, "unit": "ppm"},
      {"measurement": "H2O2", "setting": "[3]; pH 9.0, start 40 ppm sulfite + 20.0 ppm H2O2, 1080 min", "result": 8.1, "unit": "ppm"},
      {"measurement": "reduction", "setting": "Pseudomonas aeruginosa; P. aeruginosa grown up in 830 ppm sulfite diluted to 8.3 ppm during application", "result": "1.5 1 g cfu/mL"},
      {"measurement": "reduction", "setting": "Pseudomonas aeruginosa; P. aeruginosa grown up in the absence of sulfite", "result": "0.9 1 g cfu/mL"},
      {"measurement": "3 h Reduction", "setting": "Pseudomonas aeruginosa; Table 5 Test No. 4: sulfite 0 ppm, peroxide 50 ppm, pH 7.0, 3 h at 37° C.", "result": 0.9, "unit": "lg cfu/mL"}
    ]}
  ]
}
